Test results published in patent US20070213400A1, “ALCOHOL-METABOLISM ENHANCING COMPOSITION AND INGESTA CONTAINING THE SAME” (Taiyokagaku Co., Ltd., priority 2004, published 2007).

How the values were obtained:
[1] = Ethanol concentration in the blood after ingestion of ethanol (ADH method); assay type: in vivo, CDF1 male mice; details: mice; for Ethanol concentration in the blood, Mean: ethanol 3.0 g/kg oral, theanine 100 mg/kg
Description: (§1) Ethanol was ingested to CDF1 male mice 3.0 g/weight by kg by oral administration. Theanine was ingested to the abdominal cavity of each mouse once before ingestion of ethanol. Concentration of ethanol in the blood and concentration of lipid peroxide in the liver were measured. GSH concentration was also measured. Furthermore, alcohol dehydrogenase, aldehyde dehydrogenase and enzyme activity of […] were also measured.
The concentration of ethanol in the blood was measured by the following ADH method. 0.1 mL of blood was added to 0.8 mL of 0.33 N perchloric acid. After execution of a vortex process, a centrifugal process was carried out under the condition of 1200 g for 5 minutes. 0.1 mL of supernatant was mixed with 0.1 mL of buffer liquid containing […] of sodium phosphate/semicarbazide buffer liquid (pH8.7) and 0.48 mM of NAD. 0.02 mL of ADH (≧32 IU/mL) was further added to the mixture and incubated at 37° C. for 25 minutes. Thereafter, absorbance was measured at 340 nm. An unknown sample concentration was calculated by the comparison of ethanol concentration with known standard sample data.

[2] = system: alcohol dehydrogenase; experiment: Liver alcohol dehydrogenase (ADH) activity after ingestion of ethanol; assay type: in vivo, CDF1 male mice; details: mouse liver, 3 hours after ingestion of ethanol
Description: as §1

[3] = system: GPT; experiment: Chronic administration, alcoholic liver injury: GPT in the blood; assay type: in vivo, CDF1 male mice; details: mice, ethanol 1.0 or 2.0 g/kg oral twice a day, theanine 100 mg/kg abdominal cavity, ten days (FIG. 6)
Description: (§2) Ethanol was ingested to CDF1 male mice (5 weeks old) 1.0 g/kg-weight or 2.0 g/kg-weight by oral administration twice in a day. Theanine was ingested to the abdominal cavity of each mouse 100 mg/kg-weight. After ingestion of ethanol and theanine for ten days, concentrations of GOT, GPT, and γ-GTP in the blood were measured. Concentrations of lipid peroxide and GSH in the liver were measured.
(§3) The concentrations of GOT and […] in the blood were measured by using the […] C-test WAKO (WAKO Pure Chemical Industries, Ltd). The concentration of γ-GTP was measured by using the γ-GTP C-test WAKO (WAKO Pure Chemical Industries, Ltd) Concentrations of lipid peroxide and GSH in the liver were measured by the method written in Embodiment 1.
The concentration of GPT was measured by the following method. 0.02 mL of serum was added to 0.5 mL of GPT-measuring-substrate-buffer and incubated at 37° C. for 5 minutes. Thereafter, 0.5 mL of coloring reagent was added, incubated at 37° C. for 20 minutes. 2.0 mL of stop solution was added to the mixture. Thereafter absorbance was measured at 555 nm. GPT activity (Karmen unit) in the blood was calculated by the comparison of GPT activity with known standard sample data plot.

[4] = system: GSH in the liver; experiment: Chronic administration, alcoholic liver injury: GSH in the liver; assay type: in vivo, CDF1 male mice; details: mice, ethanol 1.0 or 2.0 g/kg oral twice a day, theanine 100 mg/kg abdominal cavity, ten days (FIG. 7)
Description: (§4) The GSH concentration in the liver was measured by the following method (HiSSIN-Hilf). 5% homogenate of the liver or heart was prepared in a 0.1 M sodium phosphate-0.005 M EDTA buffer liquid (pH 8.0) using a potter type Teflon homogenizer while being iced. 0.25 mL of 25% metaphosphoric acid was added to 0.75 mL of homogenate liquid and mixed well. 10000 g of substance was centrifugally processed for 30 minutes. Thereafter, supernatant was sampled and diluted by 50 times with 0.1 M sodium phosphate-0.005 M EDTA buffer liquid (pH 8.0). To 0.20 mL of the diluted liquid was added 3.6 mL of 0.1 M sodium phosphate-0.005 M EDTA buffer liquid (pH 8.0) and 0.20 mL of 0.1% o-phthalaldehyde (OPT) -methanol liquid. The mixture was left at a room temperature for 5 minutes and thereafter, the fluorometry (excitation wavelength: 350 nm; and fluorescent wavelength: 420 nm) was carried out. The unknown sample was calculated using calibration curve.

[5] = system: GSH concentration in the liver; experiment: GSH concentration in the liver after ingestion of ethanol; assay type: in vivo, CDF1 male mice; details: mouse liver, % of normal state
Description: as §1, §4

[6] = system: lipid peroxide in the liver; experiment: Lipid peroxide concentration in the liver after ingestion of ethanol (TBA fluorometry); assay type: in vivo, CDF1 male mice; details: mouse liver; for Lipid peroxide concentration, Mean: ethanol 3.0 g/kg oral, theanine
Description: as §1
(§5) The lipid peroxide concentration in the liver was measured in the following method (TBA fluorometry). 0.1 mL of liver sample (2% homogenate in physiological salt solution) was added with 0.5 mL of 3% SDS, 1.5 mL of 2.0 M acetic acid buffer liquid (pH3.6), 1.5 mL of 0.8% thiobarbituric acid and 0.4 mL of purified water so that a total amount was 4.0 mL. In a standard sample, 20 μL of 50 μmol/L malondialdehyde (MDA) was added instead of the above liver sample and 0.48 purified water was added. The solution was heat-treated in boiling water for 75 minutes and thereafter, cooled for 5 minutes. 1.0 mL of 0.2 N chloride and 5.0 mL of n-butanol were mixed to the cooled substance and thereafter, shaken for 30 seconds. 1200 g of substance was centrifugally processed for 15 minutes. Supernatant was sampled and fluorometry (excitation wavelength: 515 nm; and fluorescent wavelength: 553 nm) was carried out. The unknown sample was calculated using calibration curve.

[7] = system: cytochrome P2E1 (CYP2E1); experiment: Liver CYP2E1 enzyme activity after ingestion of ethanol (HPLC, para-nitrophenol); assay type: in vivo, CDF1 male mice; details: mouse liver, 3 hours after ingestion of ethanol
Description: as §1

[8] = system: aldehyde dehydrogenase; experiment: Liver aldehyde dehydrogenase (ALDH) activity after ingestion of ethanol; assay type: in vivo, CDF1 male mice; details: mouse liver, 3 hours after ingestion of ethanol
Description: as §1

[9] = system: mice; assay type: in vivo; details: oral administration of theanine by 5 g/kg
Text: Theanine used in the invention has a high security. […] Furthermore, theanine is known as a principal component of deliciousness of tea and used as a food additive for use as gustatory. An amount of theanine to be added is not limited under the Food Sanitation Law. Moreover, differing from conventional medical substances, theanine has no adverse side effect. Consequently, the composition of the invention can be used as a safe and effective alcohol-metabolism enhancing composition.

[10] = system: lipid peroxide in the liver; experiment: Chronic administration, alcoholic liver injury: lipid peroxide in the liver; assay type: in vivo, CDF1 male mice; details: mice, ethanol 1.0 or 2.0 g/kg oral twice a day, theanine 100 mg/kg abdominal cavity, ten days
Description: as §5, with “1.0 mL of 0.2 N chloride and 5.0 mL of n-butanol were mixed to the cooled substance and thereafter, shaken for 30 seconds. 1200 g of substance was centrifugally processed for 15 minutes. Supernatant was sampled and fluorometry (excitation wavelength: 515 nm; and fluorescent wavelength: 553 nm) was carried out.” left out
as §2, with “Theanine was ingested to the abdominal cavity of each mouse 100 mg/kg-weight.” left out
as §3

For `CCO` [Ethanol], the “Ethanol concentration in the blood, Mean” value ([1]; time 0 h) was 0 mg/mL, the “Ethanol concentration in the blood, Mean” value ([1]; time 0.5 h) was 0.498 mg/mL and the “Ethanol concentration in the blood, Mean” value ([1]; time 1 h) was 0.108 mg/mL. The “Ethanol concentration in the blood, Mean” value ([1]; time 3 h) was 0.022 mg/mL, the “ADH activity as compared with control (normal state)” value [2] was “about 123%” and the “ADH activity, Mean” value [2] was 9.13 μmol/min · mg protein. The “GPT concentrations in the blood” value [3] was “increased”, the “GSH concentrations in the liver” value [4] was “decreased” and the “GSH concentration (%), Mean” value ([5]; time 0 h) was 100.00%. The “GSH concentration (%), Mean” value ([5]; time 0.5 h) was 79.84%, the “GSH concentration (%), Mean” value ([5]; time 1 h) was 78.83% and the “GSH concentration (%), Mean” value ([5]; time 2 h) was 81.57%. For the same molecule, the “GSH concentration (%), Mean” value ([5]; time 3 h) was 75.96%, the “GSH concentration (%), Mean” value ([5]; time 5 h) was 65.50% and the “GSH concentration (%), Mean” value ([5]; time 5 h, listed as ethanol) was 65.5%. For the same molecule, the “Lipid peroxide concentration, Mean” value ([6]; time 0 h) was 0.617 mg/mL, the “Lipid peroxide concentration, Mean” value ([6]; time 0.5 h) was 0.573 mg/mL and the “Lipid peroxide concentration, Mean” value ([6]; time 1 h) was 0.565 mg/mL. The “Lipid peroxide concentration, Mean” value ([6]; time 2 h) was 0.580 mg/mL, the “Lipid peroxide concentration, Mean” value ([6]; time 3 h) was 1.036 mg/mL and the “Lipid peroxide concentration, Mean” value ([6]; time 5 h) was 0.568 mg/mL. For the same molecule, the “lipid peroxide” value ([6]; only ethanol ingested, peak value (3 h in Table 2)) was 1.036 u mol/g protein, the “Lipid peroxide concentration (%) of the value in the normal state” value (shortened to “Lipid peroxide concentration (%)”) ([6]; time 0 h) was 100% and the “Lipid peroxide concentration (%)” value ([6]; time 0.5 h) was 93%. For the same molecule, the “Lipid peroxide concentration (%)” value ([6]; time 1 h) was 92%, the “Lipid peroxide concentration (%)” value ([6]; time 2 h) was 94% and the “Lipid peroxide concentration (%)” value ([6]; time 3 h) was 168%. The “Lipid peroxide concentration (%)” value ([6]; time 5 h) was 92%, the “CYP2E1 activity, Mean” value [7] was 20.4 nmol/mg protein/min and the “ALDH activity as compared with control” value [8] was “about 63.5%”. The “ALDH activity, Mean” value [8] was 5.80 μmol/min · mg protein.
For `CCNC(=O)CC[C@H](N)C(=O)O` [Theanine, theanine], the “AUC0-3 hr of blood ethanol reduced by joint use of theanine as compared with only ethanol” value ([1]; ethanol 3.0 g/kg, theanine 100 mg/kg 30 minutes after ethanol) was 76%, the “Mortality in acute toxicity test” value [9] was “no mice died” and the “GPT concentrations in the blood” value [3] was “increase of the GPT concentrations could be reduced”. The “GSH concentrations in the liver” value [4] was “decrease of the GSH could be reduced” and the “lipid peroxide in the liver” value [10] was “increase of lipid peroxide in the liver would be reduced”.
